Measurements reported in patent US9427438B2, “Compositions and methods for treating Alzheimer's disease” (EIP Pharma, LLC, priority 2011, dated 2016).

Tests used:
hyperalgesia model = conditions: cited from earlier work
[1] = cited from earlier work
osteoarthritis model = conditions: rats, 50 mg/kg; cited from earlier work
arthritis model = conditions: 10 mg/kg dose, reference compound; cited from earlier work
IL-1β = IL-1β ELISA of brain tissue of treated Tg2576 mice; assay type: in vivo, mouse; conditions: 3 mg/kg BID, 2 weeks, soluble dorsal cortex fraction
[2] = high doses; cited from earlier work
rodent arthritis models = conditions: cited from earlier work
[3] = animals; cited from earlier work
[4] = dogs; cited from earlier work
[5] = test system: Alzheimer's disease (AD) transgenic Tg2576 mouse model; assay: Amyloid plaque load by Aβ immunohistochemistry after 2-week oral treatment of Tg2576 mice; assay type: in vivo; conditions: Tg2576 mice aged 26 months, 3 mg/kg BID oral, 2 weeks
[6] = cited from earlier work; remark: listed apart in the source
p38 MAPK = conditions: neurons preincubated in vitro; cited from earlier work

| SMILES | effect on hyperalgesia at the lowest dose (hyperalgesia model; 3 mg/kg dose) | inhibition of hyperalgesic response (hyperalgesia model; rats, doses of 30 mg/kg, 10 mg/kg and 3 mg/kg) | plasma protein binding [1] | inhibition of knee degeneration compared to control animals (osteoarthritis model) | inhibition of paw swelling (arthritis model) | IL-1β levels compared to wild-type or control animals (IL-1β) | adverse neurological effects in animals [2] | anti-inflammatory activity (rodent arthritis models) | blood brain barrier penetration [3] | brain levels relative to systemic levels [4] | decrease of amyloid plaque area in the cortex as compared with vehicle ([5]; cortex) | mean amyloid plaque area, cortex ([5]; cortex (vehicle control 27.7%)) | decrease of amyloid plaque area in the hippocampus as compared with vehicle ([5]; hippocampus) | mean amyloid plaque area, hippocampus ([5]; hippocampus (vehicle control 13.6%)) | adverse events in rheumatoid arthritis patients ([6]; 250 mg b.i.d., humans) | adverse neurological effects in humans [6] | therapeutically effective unit dose for the treatment of rheumatoid arthritis ([6]; humans) | blocking of the enhancement of MAPT phosphorylation (p38 MAPK) |
| --- | --- | --- | --- | --- | --- | --- | --- | --- | --- | --- | --- | --- | --- | --- | --- | --- | --- | --- |
| O=c1ncn2nc(Sc3ccc(F)cc3F)ccc2c1-c1c(Cl)cccc1Cl [VX-745] | minimal effect | significant inhibition of hyperalgesic response | highly protein-bound | statistically significant inhibition of knee degeneration | not as effective at inhibiting paw swelling as other compounds assayed | no increases in IL-1β levels | experienced adverse neurological effects | significant anti-inflammatory activity | known to penetrate the blood brain barrier (BBB) | twice that of systemic levels | 32.5% | 18.7% | 61.8% | 5.2% | adverse events, including gastrointestinal effects such as diarrhea and abdominal pain, and elevations in liver transaminases | not observed in humans | 250 mg |  |
| C[S+]([O-])c1ccc(-c2nc(-c3ccc(F)cc3)c(-c3ccncc3)[nH]2)cc1 (stereo not drawn) [SB203580] |  |  |  |  |  |  |  |  |  |  |  |  |  |  |  |  |  | could be blocked |
